Measurements published in article PMC6056748, “Amsacrine Derivatives Selectively Inhibit Mycobacterial Topoisomerase I (TopA), Impair M. smegmatis Growth and Disturb Chromosome Replication” (Frontiers in Microbiology, 2018).
pIC50: −log10 of the molar value. Like-named read-outs stand apart in the source and are kept apart here.

What was measured:
S. venezuelae = experiment: Growth analysis (Bioscreen C, log-phase growth rate); format: cell-based; settings: for pIC50: growth rate in log-phase, Figure 2B
[1] = system: M. smegmatis strain (JH01), DnaN-EGFP; experiment: TLMM: replisome lifetime and cell cycle phases; settings: for Phase D+B / Phase C / Complete cell cycle: 120 µM, mean (SD), n = 50; for Phase D+B: 1% DMSO 33 (15); for Phase C: 1% DMSO 129 (15); for Complete cell cycle: 1% DMSO 162 (18); for Average lifetime of DnaN-EGFP complex (replisome lifetime): 120 μM, control 1% DMSO 130 min
Protocol: For time-lapse microscopy, M. smegmatis strains were cultured to the log-phase of growth, then diluted with 7H9 medium supplemented with 10% OADC and 0.05% Tween-80 and loaded into the flow chamber of B04A plates with a CellASIC ONIX flow control system (Merck-Millipore). During the experiment, the cells were continuously supplied with fresh medium supplemented with the inhibitor (at 30–240 μM concentrations) or 1% DMSO in the control experiment. […] The images were taken in 10 min intervals using a Delta Vision Elite Imager equipped with DV Elite CoolSnap HQ2 Camera and SoftWorx software and were subsequently analyzed using ImageJ Fiji suite (http://fiji.sc/Fiji) and R suite (http://www.R-project.org). The analysis of cell cycle and evaluation of particular phases of growth started from the moment of appearance of a single DnaN-EGFP foci (initiation of DNA replication).
The calculation of an average time of particular phases of M. smegmatis cell cycle.
Phase C corresponds to chromosome replication. It starts with the appearance of a single DnaN-
EGFP focus (time 0) (green dot), which subsequently splits into two foci.
the termination of DNA replication and cell division and the time after cell division prior to initiation of
replication. The time of complete cell cycle is the sum of C and D+B phases.The data in the table show
the average time of each phase as well as the time of complete M. smegmatis cell cycle in TLMM
experiment (see the material and methods) in control experiment (DMSO) or during treatment with
amsacrine/XC-4 inhibitor.

MsTopA [2] = molecular target: T1, MsTopA (Mycolicibacterium smegmatis, UniProt A0R5D9); experiment: Topoisomerase I activity assay (relaxation of negatively supercoiled pUC19); format: biochemical, M. smegmatis; settings: 60 nM MsTopA; for inhibition at 60 µM: 60 μM inhibitor; for MsTopA activity inhibition over concentration range: concentrations from 15 to 60 μM; for MsTopA inhibition in the screen of amsacrine derivatives (Table S2): 60 μM compound, data not shown
Protocol: The amsacrine derivatives were stored at 4°C as 20 mM stock solutions in DMSO. Shortly before the activity assays, the inhibitors were diluted in DMSO to reach working concentration (0.15–0.6 mM). An 18 μl mixture containing 120 ng MsTopA, 25 mM NaH2PO4 at pH 8.0, 150 mM NaCl, 5% glycerol, 10 mM MgCl2 and a tested inhibitor in a final concentration of 15, 30, or 60 μM was incubated for 30 min on ice. To start the reaction, 2.0 μl (140 ng) of negatively supercoiled pUC19 plasmid were added to the mixture and incubated for 15 min at 37°C in the presence of 60 nM MsTopA. The reaction was stopped by adding 1.5 μl of 0.5 M EDTA. DNA was resolved in 0.8% agarose in TAE buffer at 140 V for 3 h at room temperature. Topoisomers distribution was visualized by ethidium bromide staining for 30 min at room temperature. Subsequently, the fluorescence signal of supercoiled plasmid and the relaxed topoisomers was calculated using ImageJ Fiji suite (http://fiji.sc/Fiji). To determine the efficiency of MsTopA inhibition, we calculated the fraction of total plasmid that remained supercoiled after the reaction.

[3] = system: M. smegmatis MSZ2 strain producing M. tuberculosis MtTopA; format: cell-based
MsTopA [4] = molecular target: T1, MsTopA; experiment: Surface plasmon resonance of MsTopA binding to immobilized DNA; set-up: species or system M. smegmatis; settings: for MsTopA affinity for DNA (SPR): 15–90 μM compound, MsTopA 60 nM; for ICB, inhibitory concentration that completely blocks MsTopA binding: 241 bp DNA on chip, inhibitor preincubated with MsTopA
Protocol: Surface plasmon resonance (SPR)
SPR analyses were performed on a BIAcore T200. For the SPR analyses, the biotinylated fragment (241-bp long) was amplified using parA4200 and parS4440_rv_biot oligonucleotides from S. coelicolor chromosome. DNA immobilization on the surface of the sensor chip SA and protein binding analyses were performed according to the procedure described by Strzalka et al.[9]. Prior to binding to the DNA-coated chip, MsTopA (50 nM) in 25 mM NaH2PO4 pH 8.0, 150 mM NaCl and 5% glycerol (binding buffer) was incubated on ice for 40 minutes with amsacrine or its XC derivatives (in 15 - 90 µM concentrations or 1% DMSO for the control experiment). For each compound, the ICB value was estimated as the inhibitor concentration that completely abolished the binding of MsTopA to the DNA-coated chip.

E. coli = experiment: Growth analysis (Bioscreen C, log-phase growth rate); format: cell-based; settings: Escherichia coli; for pIC50: growth rate in log-phase, Figure 2B
[5] = system: M. smegmatis (JH01 strain); experiment: Propidium iodide staining of dead cells (TLMM); settings: 120 μM, after 15 hours of exposure
Protocol: For time-lapse microscopy, M. smegmatis strains were cultured to the log-phase of growth, then diluted with 7H9 medium supplemented with 10% OADC and 0.05% Tween-80 and loaded into the flow chamber of B04A plates with a CellASIC ONIX flow control system (Merck-Millipore). During the experiment, the cells were continuously supplied with fresh medium supplemented with the inhibitor (at 30–240 μM concentrations) or 1% DMSO in the control experiment. To visualize dead cells, after 15 h of inhibitor treatment cells were washed with propidium iodide at concentration 10 μg/ml for 1 h. The images were taken in 10 min intervals using a Delta Vision Elite Imager equipped with DV Elite CoolSnap HQ2 Camera and SoftWorx software and were subsequently analyzed using ImageJ Fiji suite (http://fiji.sc/Fiji) and R suite (http://www.R-project.org).
M. smegmatis (JH01 strain) growth in the presence of 120 µM amsacrine or 1% DMSO was
visualized using TLMM microscopy (the procedure descirbed in the materials and methods).
After 15 hours of exposure to antibiotic cells were washed with medium suplemented with 10
µg/ml propidium iodide for 1 hour to detect dead cells (red) in the population.

[6] = system: M. smegmatis strain (JH01), DnaN-EGFP; experiment: TLMM: number of DnaN-EGFP foci per cell
Protocol: For time-lapse microscopy, M. smegmatis strains were cultured to the log-phase of growth, then diluted with 7H9 medium supplemented with 10% OADC and 0.05% Tween-80 and loaded into the flow chamber of B04A plates with a CellASIC ONIX flow control system (Merck-Millipore). During the experiment, the cells were continuously supplied with fresh medium supplemented with the inhibitor (at 30–240 μM concentrations) or 1% DMSO in the control experiment. To visualize dead cells, after 15 h of inhibitor treatment cells were washed with propidium iodide at concentration 10 μg/ml for 1 h. The images were taken in 10 min intervals using a Delta Vision Elite Imager equipped with DV Elite CoolSnap HQ2 Camera and SoftWorx software and were subsequently analyzed using ImageJ Fiji suite (http://fiji.sc/Fiji) and R suite (http://www.R-project.org). The analysis of cell cycle and evaluation of particular phases of growth started from the moment of appearance of a single DnaN-EGFP foci (initiation of DNA replication).

M. smegmatis mc2155 = experiment: Growth analysis (Bioscreen C, log-phase growth rate); format: cell-based; settings: for inhibition at 30 µM: log-phase growth rate vs 1% DMSO; for IC50 lower than amsacrine: M. smegmatis growth
MsTopA [7] = molecular target: T1, MsTopA; experiment: MsTopA inhibition in PI, NI and PN order-of-addition assays; format: biochemical, M. smegmatis; settings: 60 μM inhibitor, 60 nM MsTopA
Protocol: In the inhibition assays used to test the effect of inhibitor binding to the enzyme, DNA or the enzyme-DNA complex (PI—protein-inhibitor binding, NI—nucleic acid-inhibitor binding, or PNI—protein-nucleic acid binding) the complete reaction mixtures (as above) without magnesium ions and one of the reaction components (substrate, enzyme or inhibitor in the PI, NI, and PNI assays, respectively) were preincubated for 30 min on ice. Subsequently, the reactions were started by adding magnesium chloride and the missing component: negatively supercoiled pUC19 plasmid, MsTopA protein or the particular inhibitors. The reactions were performed for 5 min at 37°C and stopped by adding 1.5 μl of 0.5 M EDTA. Topoisomers were resolved and analyzed according to the procedure described above.

[8] = Solubility under microfluidic conditions; format: physicochemical
[9] = Mycolicibacterium smegmatis, MC2155
[10] = Mycolicibacterium smegmatis, MC2155, M. smegmatis, Figure S4, read-out: IC50 (growth inhibition fitted to a sigmoidal model)
[11] = Mycolicibacterium smegmatis, MC2155, growth rate in log-phase, Figure 2B, read-out: IC50 M. smegmatis

T1 sequence (A0R5D9 whole entry): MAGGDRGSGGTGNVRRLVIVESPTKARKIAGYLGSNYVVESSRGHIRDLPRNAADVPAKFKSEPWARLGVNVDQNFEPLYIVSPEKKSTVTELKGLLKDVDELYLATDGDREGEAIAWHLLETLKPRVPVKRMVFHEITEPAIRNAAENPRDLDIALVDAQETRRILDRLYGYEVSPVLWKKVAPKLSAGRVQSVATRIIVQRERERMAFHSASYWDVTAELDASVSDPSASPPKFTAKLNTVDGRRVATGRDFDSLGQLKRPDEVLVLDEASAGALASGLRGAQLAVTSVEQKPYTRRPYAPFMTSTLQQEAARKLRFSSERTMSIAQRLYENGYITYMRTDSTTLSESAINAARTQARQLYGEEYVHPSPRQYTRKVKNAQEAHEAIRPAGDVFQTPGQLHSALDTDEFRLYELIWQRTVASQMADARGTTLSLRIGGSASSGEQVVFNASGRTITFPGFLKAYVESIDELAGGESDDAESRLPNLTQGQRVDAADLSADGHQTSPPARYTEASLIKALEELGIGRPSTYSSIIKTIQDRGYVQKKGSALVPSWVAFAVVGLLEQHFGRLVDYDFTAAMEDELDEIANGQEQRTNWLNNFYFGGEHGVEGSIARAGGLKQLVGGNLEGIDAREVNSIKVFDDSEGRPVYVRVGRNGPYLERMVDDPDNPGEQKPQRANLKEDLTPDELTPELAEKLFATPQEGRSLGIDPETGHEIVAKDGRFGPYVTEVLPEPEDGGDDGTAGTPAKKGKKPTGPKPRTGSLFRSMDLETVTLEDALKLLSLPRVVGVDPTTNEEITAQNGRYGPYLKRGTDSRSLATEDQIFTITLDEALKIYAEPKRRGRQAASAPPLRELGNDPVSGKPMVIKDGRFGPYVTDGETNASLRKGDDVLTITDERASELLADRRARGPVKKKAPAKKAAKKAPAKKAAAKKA

Compound | pIC50 (S. venezuelae; Streptomyces venezuelae) | Phase D+B [1] | Phase C [1] | Average lifetime of DnaN-EGFP complex (replisome lifetime) [1] | inhibition at 60 µM (MsTopA [2]) [%] | MsTopA activity inhibition over concentration range (MsTopA [2]) | Difference in growth inhibition between wild-type M. smegmatis and MSZ2 strain producing MtTopA [3] | MsTopA affinity for DNA (SPR) (MsTopA [4]) | ICB, inhibitory concentration that completely blocks MsTopA binding (MsTopA [4]) [µM] | pIC50 (E. coli) | Percentage of cells with more than two DnaN-EGFP foci ([6]; 120 μM) | Percentage of cells with no DnaN-EGFP focus ([6]; 120 μM) | inhibition at 30 µM (M. smegmatis mc2155; [9]) [%] | pIC50 (M. smegmatis mc2155; [10]) | pIC50 (M. smegmatis mc2155; [11]) | S. venezuelae growth inhibition (S. venezuelae; 60 μM) | Inhibitory effect when added to the preformed MsTopA-DNA complex (PN assay) (MsTopA [7]) | MsTopA inhibition in the screen of amsacrine derivatives (Table S2) (MsTopA [2]) | IC50 lower than amsacrine (M. smegmatis mc2155) | also measured
COc1cc(NS(C)(=O)=O)ccc1Nc1c2ccccc2nc2ccccc12 [Amsacrine, amsacrine] | 4.33 | 40 (21) min | 154 (32) min | slightly increased | 64 | strongly inhibit MsTopA activity at concentrations >30 μM | did not observe any differences in growth inhibition | decrease in enzyme affinity for DNA | 90 | < 4.05 | 27.6% | 26.1% | 20 to 30 | 4.40 | 4.39 | – | – | – | – | inhibition at 60 µM (S. venezuelae; Streptomyces venezuelae, 60 μM): ≤ 80%; Complete cell cycle [1]: 194 (36) min; Complete cell cycle ([1]; listed as amsacrine): only slightly; inhibition at 60 µM (E. coli; read-out: E. coli growth inhibition): 32%; Fraction of dead cells (propidium iodide) [5]: 12%; Percentage of cells with more than two DnaN-EGFP foci ([6]; 240 μM): 6.2%; Percentage of cells with no DnaN-EGFP focus ([6]; 240 μM): 48%; inhibition at 60 µM (M. smegmatis mc2155; Mycolicibacterium smegmatis, MC2155, 60 μM): ≤ 80%
COc1cc(NS(=O)(=O)c2ccccc2)ccc1Nc1c2ccccc2nc2ccccc12 [XC-1] | < 4.05 | – | – | slightly increased | 73 | strongly inhibit MsTopA activity at concentrations >30 μM | did not observe any differences in growth inhibition | decrease in enzyme affinity for DNA | 60 | < 4.05 | 13.4–19.1% | 13.8–18.3% | 20 to 30 | 4.26 | 4.24 | much lesser extent than amsacrine | notably weaker | efficiently inhibited MsTopA activity | – | –
COc1cc(NS(=O)(=O)c2ccc(Cl)cc2)ccc1Nc1c2ccccc2nc2ccccc12 [XC-2] | 4.07 | – | – | slightly increased | 63 | strongly inhibit MsTopA activity at concentrations >30 μM | did not observe any differences in growth inhibition | decrease in enzyme affinity for DNA | 30 | < 4.05 | 13.4–19.1% | 13.8–18.3% | 20 to 30 | 4.25 | – | much lesser extent than amsacrine | notably weaker | efficiently inhibited MsTopA activity | – | –
COc1cc(NS(=O)(=O)c2ccc([N+](=O)[O-])cc2)ccc1Nc1c2ccccc2nc2ccccc12 [XC-3] | < 4.05 | – | – | slightly increased | 73 | strongly inhibit MsTopA activity at concentrations >30 μM | did not observe any differences in growth inhibition | decrease in enzyme affinity for DNA | 15 | 4.11 | 13.4–19.1% | 13.8–18.3% | 55 to 60 | 4.57 | 4.59 | much lesser extent than amsacrine | – | efficiently inhibited MsTopA activity | 30–40% | Solubility under microfluidic conditions [8]: poor solubility
COc1cc(NS(=O)(=O)c2ccc(C)cc2)ccc1Nc1c2ccccc2nc2ccccc12 [XC-4] | < 4.05 | 70 (38) min | 240 (51) min | 220 min | 80 | strongly inhibit MsTopA activity at concentrations >30 μM | did not observe any differences in growth inhibition | decrease in enzyme affinity for DNA | 15 | 4.07 | 4.6% | – | 55 to 60 | 4.57 | 4.55 | much lesser extent than amsacrine | – | efficiently inhibited MsTopA activity | 30–40% | DnaN-EGFP lifetime ([1]; 30 μM, compared with 120 μM XC-4): shortened the DnaN-EGFP lifetime; Percentage of cells with more than two DnaN-EGFP foci ([6]; 30 μM): 19.3%
COc1cc([C@@H]2c3cc4c(cc3[C@@H](O[C@@H]3O[C@@H]5CO[C@@H](C)O[C@H]5[C@H](O)[C@H]3O)[C@H]3COC(=O)[C@H]23)OCO4)cc(OC)c1O [etoposide, reference compound] | – | – | – | – | – | – | – | – | – | – | – | – | – | – | – | – | – | – | – | MsTopA inhibition (MsTopA [2]; etoposide 0.1 - 2.0 mM): did not observe MsTopA inhibition
